Active and inactive are the calls of the source. No cut-off for these calls is given here.
Experiments:
[1] = target: T1, Poly [ADP-ribose] polymerase 1 (Homo sapiens, UniProt P09874); experiment: Inhibition of recombinant human full-length PARP-1 using biotinylated substrate
[2] = target: T2, Poly [ADP-ribose] polymerase 2 (Homo sapiens, UniProt Q9UGN5); experiment: Inhibition of recombinant human full-length PARP-2 using biotinylated substrate
[3] = Acute toxicity in ICR mouse assessed as change in body weight at 1000 mg/kg, po administered only once at day 1 and measured every two days for 14 days; type: organism-based; conditions: in vivo, 336 h, time 14 day
[4] = Acute toxicity in ICR mouse assessed as change in blood routine at 1000 mg/kg, po administered only once at day 1 and measured every two days for 14 days; type: organism-based; conditions: in vivo, 336 h, time 14 day
[5] = Hepatotoxicity in ICR mouse assessed as effect on ALT level at 1000 mg/kg, po administered only once at day 1 and measured every two days for 14 days (reference value: 28.6 +/- 6.9 U/L); type: toxicity, organism-based; conditions: in vivo, 336 h, time 14 day
[6] = Hepatotoxicity in ICR mouse assessed as effect on AST level at 1000 mg/kg, po administered only once at day 1 and measured every two days for 14 days (reference value: 61.5 +/- 3.7 U/L); type: toxicity, organism-based; conditions: in vivo, 336 h, time 14 day
[7] = Renal toxicity in ICR mouse assessed as effect on BUN level at 1000 mg/kg, po administered only once at day 1 and measured every two days for 14 days (reference value: 8.9 +/- 0.9 mmol/L); type: organism-based; conditions: in vivo, 336 h, time 14 day
CYP2C19 = CYP2C19 (Homo sapiens, UniProt P33261); experiment: Inhibition of CYP2C19 (unknown origin) at 10 uM incubated for 10 to 30 mins in presence of NADPH regeneration system by microplate analysis relative to control; type: ADME; conditions: time 10-30 min
CYP2C19, sequence (P33261 whole entry): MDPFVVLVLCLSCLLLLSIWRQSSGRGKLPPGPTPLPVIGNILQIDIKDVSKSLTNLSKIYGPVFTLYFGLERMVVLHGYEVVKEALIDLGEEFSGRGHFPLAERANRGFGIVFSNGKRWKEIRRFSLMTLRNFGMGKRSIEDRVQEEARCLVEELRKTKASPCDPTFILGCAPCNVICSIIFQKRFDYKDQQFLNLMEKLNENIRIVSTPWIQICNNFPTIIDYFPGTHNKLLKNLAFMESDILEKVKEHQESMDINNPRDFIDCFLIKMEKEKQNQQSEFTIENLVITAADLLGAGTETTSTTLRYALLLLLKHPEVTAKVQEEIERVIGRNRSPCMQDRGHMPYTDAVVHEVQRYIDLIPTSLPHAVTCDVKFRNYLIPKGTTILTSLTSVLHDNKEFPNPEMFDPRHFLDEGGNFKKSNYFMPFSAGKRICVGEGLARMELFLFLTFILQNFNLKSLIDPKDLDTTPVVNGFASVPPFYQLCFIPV

CYP2D6 = CYP2D6 (Homo sapiens, UniProt P10635); experiment: Inhibition of CYP2D6 (unknown origin) at 10 uM incubated for 10 to 30 mins in presence of NADPH regeneration system by microplate analysis relative to control; type: ADME; conditions: time 10-30 min
CYP2D6, sequence (P10635 whole entry): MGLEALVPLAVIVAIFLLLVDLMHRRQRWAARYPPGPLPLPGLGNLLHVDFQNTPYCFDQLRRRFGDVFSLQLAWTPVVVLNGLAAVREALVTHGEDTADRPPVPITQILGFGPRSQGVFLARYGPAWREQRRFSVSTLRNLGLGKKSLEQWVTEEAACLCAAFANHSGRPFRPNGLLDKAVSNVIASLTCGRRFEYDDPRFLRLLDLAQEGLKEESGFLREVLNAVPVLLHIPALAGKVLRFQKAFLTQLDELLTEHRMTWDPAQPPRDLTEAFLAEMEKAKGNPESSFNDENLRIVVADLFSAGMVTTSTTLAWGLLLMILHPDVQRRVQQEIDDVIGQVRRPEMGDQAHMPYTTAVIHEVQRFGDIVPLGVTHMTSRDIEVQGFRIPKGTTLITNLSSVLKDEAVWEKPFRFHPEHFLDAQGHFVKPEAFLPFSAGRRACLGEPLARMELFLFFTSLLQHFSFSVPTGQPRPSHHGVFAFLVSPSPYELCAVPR

CYP2C9 = CYP2C9 (Homo sapiens, UniProt P11712); experiment: Inhibition of CYP2C9 (unknown origin) at 10 uM incubated for 10 to 30 mins in presence of NADPH regeneration system by microplate analysis relative to control; type: ADME; conditions: time 10-30 min
CYP2C9, sequence (P11712 whole entry): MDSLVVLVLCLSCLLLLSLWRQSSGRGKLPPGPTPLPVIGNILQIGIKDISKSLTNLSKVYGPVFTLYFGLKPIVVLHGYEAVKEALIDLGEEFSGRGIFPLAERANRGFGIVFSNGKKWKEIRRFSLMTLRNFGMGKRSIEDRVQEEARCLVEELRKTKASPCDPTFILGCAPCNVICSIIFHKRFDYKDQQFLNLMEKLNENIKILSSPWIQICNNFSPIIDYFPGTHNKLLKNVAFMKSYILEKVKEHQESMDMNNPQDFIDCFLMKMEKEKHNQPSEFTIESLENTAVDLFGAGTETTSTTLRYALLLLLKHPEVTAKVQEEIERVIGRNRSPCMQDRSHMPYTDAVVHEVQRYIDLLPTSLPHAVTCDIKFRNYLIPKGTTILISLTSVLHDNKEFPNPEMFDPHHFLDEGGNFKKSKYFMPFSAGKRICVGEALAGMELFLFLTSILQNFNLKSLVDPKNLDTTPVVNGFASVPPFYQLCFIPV

CYP1A2 = target: T3, CYP1A2 (Homo sapiens, UniProt P05177); experiment: Inhibition of CYP1A2 (unknown origin) at 10 uM incubated for 10 to 30 mins in presence of NADPH regeneration system by microplate analysis relative to control; type: ADME; conditions: time 10-30 min
T3 sequence (P05177 whole entry): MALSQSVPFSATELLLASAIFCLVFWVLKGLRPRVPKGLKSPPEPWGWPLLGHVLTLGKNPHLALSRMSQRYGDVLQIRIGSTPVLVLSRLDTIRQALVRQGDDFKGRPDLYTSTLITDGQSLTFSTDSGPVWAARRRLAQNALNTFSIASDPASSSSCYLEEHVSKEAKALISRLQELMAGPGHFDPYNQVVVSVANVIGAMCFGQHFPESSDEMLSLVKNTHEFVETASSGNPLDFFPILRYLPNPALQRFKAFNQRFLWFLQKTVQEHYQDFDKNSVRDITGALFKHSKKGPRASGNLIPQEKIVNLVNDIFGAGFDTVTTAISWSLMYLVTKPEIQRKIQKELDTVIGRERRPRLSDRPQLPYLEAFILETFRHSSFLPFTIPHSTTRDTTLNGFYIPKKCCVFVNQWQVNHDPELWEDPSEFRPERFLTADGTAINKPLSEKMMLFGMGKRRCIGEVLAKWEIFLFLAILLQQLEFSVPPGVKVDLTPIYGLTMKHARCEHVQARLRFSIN

CYP3A4 = CYP3A4 (Homo sapiens, UniProt P08684); experiment: Inhibition of CYP3A4 (unknown origin) at 10 uM incubated for 10 to 30 mins in presence of NADPH regeneration system by microplate analysis relative to control; type: ADME; conditions: time 10-30 min
CYP3A4, sequence (P08684 whole entry): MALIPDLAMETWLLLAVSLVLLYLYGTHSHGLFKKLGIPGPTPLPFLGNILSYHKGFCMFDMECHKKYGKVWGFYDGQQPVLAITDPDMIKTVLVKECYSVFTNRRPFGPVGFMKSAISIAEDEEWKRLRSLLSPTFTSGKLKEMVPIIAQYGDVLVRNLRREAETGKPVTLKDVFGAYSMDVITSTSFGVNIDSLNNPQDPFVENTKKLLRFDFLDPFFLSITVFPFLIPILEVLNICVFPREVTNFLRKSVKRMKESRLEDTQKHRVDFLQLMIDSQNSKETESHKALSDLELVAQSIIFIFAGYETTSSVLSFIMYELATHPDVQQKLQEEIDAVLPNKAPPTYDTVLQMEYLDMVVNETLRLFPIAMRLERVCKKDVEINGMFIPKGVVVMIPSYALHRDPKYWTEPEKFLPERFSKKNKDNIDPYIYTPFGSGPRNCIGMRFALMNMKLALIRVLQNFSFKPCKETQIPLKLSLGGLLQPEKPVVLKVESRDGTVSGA

[8] = Stability in rat plasma assessed as compound remaining after 0.5 hrs; type: ADME, cell-free; conditions: read-out: Stabilty
[9] = Stability in rat plasma assessed as compound remaining after 4 hrs; type: ADME, cell-free; conditions: read-out: Stabilty
[10] = target: T1, Poly [ADP-ribose] polymerase 1; experiment: Binding affinity to recombinant human PARP-1 by SPR analysis
[11] = target: T2, Poly [ADP-ribose] polymerase 2; experiment: Binding affinity to recombinant human PARP-2 by SPR analysis
SK-OV-3 [12] = experiment: Antitumor activity against human SK-OV-3 cells xenografted in BALB/c nude mouse assessed as decrease in tumor volume at 50 mg/kg, po administered once daily measured for 28 days; type: functional, organism-based; conditions: time 28.0 day
SK-OV-3 [13] = experiment: Antitumor activity against human SK-OV-3 cells xenografted in BALB/c nude mouse assessed as relative tumor volume at 50 mg/kg, po administered once daily for 12 days; type: functional; conditions: time 12 day
Homo sapiens = species: Homo sapiens; experiment: Selectivity index, ratio of IC50 for inhibition of recombinant human full-length PARP-2 to IC50 for inhibition of recombinant human full-length PARP-1
A549 [14] = experiment: Cytotoxicity against human A549 cells assessed as induction of CBP cytotoxicity incubated for 48 hrs in presence of CBP by MTT assay; type: functional, cell-based; conditions: dose 0.1-10 µM
A549 [15] = experiment: Cytotoxicity against human A549 cells assessed as reduction in cell viability at 0.1 to 10 uM incubated for 48 hrs by MTT assay; type: functional, cell-based; conditions: dose 0.1-10 µM
SK-OV-3 [16] = experiment: Cytotoxicity against human BRCA-1 deficient SK-OV-3 cells assessed as reduction in cell viability at 0.1 to 10 uM incubated for 48 hrs by MTT assay; type: functional, cell-based; conditions: dose 0.1-10 µM
[17] = Acute toxicity in ICR mouse assessed as death at 1000 mg/kg, po administered only once at day 1 and measured after 5 to 8 days; type: organism-based; conditions: in vivo, time 5-8 day

T2 sequence (Q9UGN5 whole entry): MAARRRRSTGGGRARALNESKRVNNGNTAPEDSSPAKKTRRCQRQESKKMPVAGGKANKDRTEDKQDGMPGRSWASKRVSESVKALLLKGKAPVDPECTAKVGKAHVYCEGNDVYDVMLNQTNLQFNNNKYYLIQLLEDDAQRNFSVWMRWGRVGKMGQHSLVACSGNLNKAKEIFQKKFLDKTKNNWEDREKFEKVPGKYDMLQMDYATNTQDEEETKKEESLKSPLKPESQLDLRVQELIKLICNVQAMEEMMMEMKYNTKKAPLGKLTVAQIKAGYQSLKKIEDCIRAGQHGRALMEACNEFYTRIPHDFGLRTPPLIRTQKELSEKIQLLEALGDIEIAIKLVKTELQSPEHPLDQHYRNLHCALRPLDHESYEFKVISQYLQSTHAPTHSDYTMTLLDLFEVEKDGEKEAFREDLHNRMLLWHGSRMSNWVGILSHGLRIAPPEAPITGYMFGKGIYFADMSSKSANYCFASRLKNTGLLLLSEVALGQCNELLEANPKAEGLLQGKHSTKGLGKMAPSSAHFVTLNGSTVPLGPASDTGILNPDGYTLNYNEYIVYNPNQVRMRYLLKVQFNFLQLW
T1 sequence (P09874 whole entry): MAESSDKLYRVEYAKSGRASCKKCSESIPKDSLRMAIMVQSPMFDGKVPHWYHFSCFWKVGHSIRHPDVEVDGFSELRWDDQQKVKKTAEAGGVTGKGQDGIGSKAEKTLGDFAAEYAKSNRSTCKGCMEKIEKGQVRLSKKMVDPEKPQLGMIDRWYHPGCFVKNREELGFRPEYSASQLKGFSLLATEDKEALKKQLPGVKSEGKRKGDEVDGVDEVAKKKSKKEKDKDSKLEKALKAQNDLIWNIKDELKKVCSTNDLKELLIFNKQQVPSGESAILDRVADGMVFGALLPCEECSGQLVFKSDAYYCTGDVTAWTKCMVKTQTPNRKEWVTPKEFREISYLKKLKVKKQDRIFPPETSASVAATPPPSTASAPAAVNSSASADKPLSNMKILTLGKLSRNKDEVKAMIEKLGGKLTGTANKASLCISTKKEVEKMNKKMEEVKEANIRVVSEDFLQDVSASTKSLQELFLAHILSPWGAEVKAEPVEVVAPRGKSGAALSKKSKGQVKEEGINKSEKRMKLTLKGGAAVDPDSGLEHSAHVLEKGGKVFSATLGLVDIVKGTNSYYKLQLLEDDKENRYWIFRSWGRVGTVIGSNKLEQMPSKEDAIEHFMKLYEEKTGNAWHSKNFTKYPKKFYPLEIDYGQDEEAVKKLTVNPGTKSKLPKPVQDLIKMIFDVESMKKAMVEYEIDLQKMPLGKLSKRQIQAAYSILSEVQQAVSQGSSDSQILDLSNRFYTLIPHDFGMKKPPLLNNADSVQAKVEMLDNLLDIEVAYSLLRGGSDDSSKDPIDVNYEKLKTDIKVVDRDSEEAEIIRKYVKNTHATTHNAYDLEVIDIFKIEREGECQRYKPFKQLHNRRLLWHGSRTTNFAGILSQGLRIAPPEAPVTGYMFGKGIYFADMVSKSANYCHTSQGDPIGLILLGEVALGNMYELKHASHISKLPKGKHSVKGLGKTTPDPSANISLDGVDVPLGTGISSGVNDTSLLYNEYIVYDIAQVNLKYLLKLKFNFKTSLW

SMILES: O=c1cc(-c2ccc(O)cc2)oc2c(CN3CCN(Cc4cccs4)CC3)c(O)cc(O)c12
- IC50 [1]: 0.0147 µM
- IC50 [2]: 0.9 µM
- Activity [3]: Non-Toxic
- Activity [4]: Non-Toxic
- Activity [5]: 27.6 U/L
- Activity [6]: 64.1 U/L
- Activity [7]: 9 mmol/L
- inhibition at 10 µM (CYP2C19): 70.4%
- inhibition at 10 µM (CYP2D6): 92.7%
- inhibition at 10 µM (CYP2C9): 94.7%
- inhibition at 10 µM (CYP1A2): 85.2%
- inhibition at 10 µM (CYP3A4): 93.4%
- remaining at 0.5 h [8]: 83.4%
- remaining at 4 h [9]: 46.2%
- Kd [10]: 0.055 µM
- Kd [11]: 0.605 µM

SMILES: O=C(c1cc(Cc2n[nH]c(=O)c3ccccc23)ccc1F)N1CCN(C(=O)C2CC2)CC1 [OLAPARIB]
- Activity (SK-OV-3 [12]): Active
- Activity (SK-OV-3 [13]): 2.12

SMILES: O=c1cc(-c2ccc(O)cc2)oc2c(CN3CCN(Cc4ccco4)CC3)c(O)cc(O)c12
- IC50 [1]: 0.0179 µM
- IC50 [2]: 1.3 µM
- Ratio IC50 (Homo sapiens): 72.6
- Activity (A549 [14]): Dose-Dependent Effect
- Activity (A549 [15]): inactive
- Activity (SK-OV-3 [16]): Active
- Activity [17]: Toxic
